Measured values as given in US20130287919A1, “METHOD OF USING DIETARY INGREDIENTS DIHYDROQUERCETIN (TAXIFOLIN), ARABINOGALACTAN AND ARABINOGALACTAN IN COMBINATION WITH DIHYDROQUERCETIN (TAXIFOLIN) FOR APPLICATIONS IN FOOD PRODUCTS” (FLAVITPURE, INC., priority 2012, published 2013).
Several values for one entry are separate records, joined by “and”; a condition that tells them apart may be missing. Identical values can stand only once.

Assays:
[1] = oxygen radical absorbance capacity (ORAC) assay; type: biochemical
Description: FIGS. 6 and 7 illustrate ORAC and CAP-e antioxidant tests conducted on Dihydroquercetin (taxifolin). The ORAC test measures the scavenging capacity at 37° C. of peroxyl radical induced by 2,2 -azobis-(2-amidinopropane) dihydrochloride (AAPH) using fluorescence at a wavelength of 565 nm with excitation at 540 nm. The results are calculated and expressed as milimoles of Trolox equivalents per gram. This test is widely used for evaluation and comparison of the antioxidant capacity in natural products and extracts and has been successfully applied to bioavailability studies, showing increased antioxidant capacity in serum in test subjects after consumption of antioxidant-rich foods.
Two different but synergistic testing principles are shown in FIG. 6: (A) The oxygen radical absorbance capacity (ORAC) assay is a chemical test, in which interference with specific chemical reactions are measured; (B) The cell-based antioxidant protection in erythrocytes (CAP-e) assay reflects whether antioxidants can enter into and protect live cells from oxidative damage. Dihydroquercetin (taxifolin) has the ORAChydrophilic assay over 15,000 μmol TE/g.

[2] = concentration 0.001%; cooled samples, traditional recipe; day 7 of storage; cited from earlier work
rats = conditions: high levels, long periods of time; cited from earlier work
serum and liver lipids = conditions: following exposure to toxic ionizing radiation; cited from earlier work
lipid peroxidation = conditions: in vitro and ex vivo; cited from earlier work
[3] = lard, cottonseed oil, and butter oil; cited from earlier work
[4] = milks produced during the dry-lot regime; cited from earlier work

O=C1c2c(O)cc(O)cc2OC(c2ccc(O)c(O)c2)C1O (stereo not shown) [Dihydroquercetin (taxifolin)]
ORAChydrophilic assay [1]: over 15,000 μmol TE/g | peroxide values lower by [2]: 57.1% and 58.60% | toxic effects (rats): No toxic effects were observed | peroxidation of serum and liver lipids (serum and liver lipids): inhibited | lipid peroxidation (lipid peroxidation): inhibits | antioxidant effect [3]: effective antioxidant | development of spontaneous oxidation [4]: inhibited
